Values quoted from earlier work in US20230173142A1, “BALLISTIC DELIVERY TO MULTILAYERED TISSUES AND RELATED PARTICLES, COMPOSITIONS, METHODS AND SYSTEMS” (CALIFORNIA INSTITUTE OF TECHNOLOGY, priority 2021, published 2023).
“Also recorded” adds a separate entry of the source. Where two headings read alike, the source gives them in different places.

Tests used:
lysyl oxidase (LOX) = biological target: T1, lysyl oxidase (LOX) (Homo sapiens, UniProt P28300); conditions: increasing [Cu^2+]
T1 sequence (P28300 169-417): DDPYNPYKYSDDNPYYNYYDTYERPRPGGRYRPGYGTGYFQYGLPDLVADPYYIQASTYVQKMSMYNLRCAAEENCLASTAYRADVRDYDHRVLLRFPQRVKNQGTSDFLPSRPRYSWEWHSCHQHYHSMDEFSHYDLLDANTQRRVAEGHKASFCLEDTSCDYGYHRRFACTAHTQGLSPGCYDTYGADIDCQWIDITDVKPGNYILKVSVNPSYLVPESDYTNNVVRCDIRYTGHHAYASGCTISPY

rabbit cornea = rabbit cornea treated topically
rabbit corneas = rabbit corneas ex vivo
ear hole punch injury = conditions: multiple peripheral subcutaneous injections of hydrogel over a 10-day period; Swiss Webster mice

Q: With “aFGF: growth factor/cytokine loaded in hydrogel” as the compound, how does the Effect (wound healing; Material: Hydrogel) read?
A: The Effect was “Accelerated cell proliferation, neo-vascularization, and wound healing”.

Q: For “EGF: growth factor loaded in carrier material”, which Effect (wound healing; Material: Nanoparticle) is on record?
A: Its Effect is “Accelerated migration of inflammatory cells during the inflammation; also recorded: Enhanced wound closure, collagen deposition, angiogenesis, and”.

Q: With `[Cu+2]` [Copper] as the compound, how does the LOX activity (lysyl oxidase (LOX)) read?
A: The LOX activity was “restore LOX activity”.

Q: And the “crosslinking as measured by LNL” value (rabbit cornea)?
A: The value was “increase crosslinking”.

Q: What about the biomechanical strength (human cadaver corneas) of the same compound?
A: Its biomechanical strength is “increase biomechanical strength”.

Q: What about the biomechanical strength (rabbit corneas) of the same compound?
A: Its biomechanical strength is “increase biomechanical strength”.

Q: For SDF-1: stromal cell-derived factor-1, which Effect (wound healing; Material: Hydrogel) is on record?
A: The Effect was “Accelerated wound healing and increased vascularization”.

Q: Which Effect (wound healing; Material: Hydrogel) does the source give for VEGF here?
A: The Effect was “Enhanced wound healing, granulation, collagen deposition,”.

Q: What about the Effect (wound healing; Material: Lyotropic liquid crystal) of the same compound?
A: Its Effect is “Enhanced vascularization”.

Q: Which “wound healing after ear hole punch injury” value (ear hole punch injury) does the source give for `O=C(O)c1c[nH]c2c(ccc3cccnc32)c1=O` [1,4-DPCA, 1,4-dihydrophenonthrolin-4-one-3-carboxylic acid] here?
A: The value was “regenerative wound healing”.

Q: With “bFGF: growth factor/cytokine loaded in carrier material” as the compound, how does the Effect (wound healing; Material: Concentrate) read?
A: Its Effect is “Enhanced wound closure, angiogenesis, collagen deposition,”.

Q: And the Effect (wound healing; Material: Hydrogel)?
A: Its Effect is “Enhanced wound closure, collagen deposition, vascularization,; also recorded: Enhanced wound closure, organized collageno depostion,; also recorded: Enhanced the formation of granulation tissue, increased angiogenesis,”.
